In patent US20120129843A1, “PYRIDYL-THIAZOLYL INHIBITORS OF PRO-MATRIX METALLOPROTEINASE ACTIVATION” (priority 2010, published 2012) one finds IC50 and Kd data, which are given here for 16 molecules.

For orientation: IC50 means the midpoint of a concentration-inhibition curve. Low values mean greater potency, high ones weaker potency. In general, Kd refers to the equilibrium constant for the complex coming apart. Read a high Kd as lower affinity.

Experiment [1] addresses T1, full-length proMMP9(1-707) (SEQ ID NO:1), activation by catalytic MMP3 (Homo sapiens, UniProt P14780, R574P).
T1 construct: made in house; host or cells: HEK293 (proMMP9, secreted); E. coli (MMP3)
The experiment can be described thus: proMMP9/MMP3 P126 Activation Assay. Format: biochemical. The method, then:
proMMP9/MMP3 P126 Activation Assay
The reaction volume was 50 μL. […] Reactivity of residual MMP3 towards P-126 substrate was minimal under these conditions.

In experiment [2] the target is T2, proMMP9(20-445;ΔFnII) (SEQ ID NO:6) (Homo sapiens, UniProt P14780, DEL216-390).
T2 construct: start methionine (N); made in house; host or cells: E. coli BL21(DE3) RIL
T2 sequence (P14780 with tags, fused parts or gaps DEL216-390): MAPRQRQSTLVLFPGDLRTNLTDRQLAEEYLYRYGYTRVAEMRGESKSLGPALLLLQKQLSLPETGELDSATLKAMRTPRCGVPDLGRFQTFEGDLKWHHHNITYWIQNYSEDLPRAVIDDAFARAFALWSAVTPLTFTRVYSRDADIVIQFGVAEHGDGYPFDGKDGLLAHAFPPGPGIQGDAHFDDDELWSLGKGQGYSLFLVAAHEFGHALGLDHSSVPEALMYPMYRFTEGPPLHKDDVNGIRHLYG
Description: ThermoFluor binding assay with proMMP9(20-445;ΔFnII). The procedure, abridged:
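Thermal-shift binding using 2.8 μM proMMP9(20-445;ΔFnII) with 50 μM 1,8-ANS in 50 mM HEPES pH 7.0, 100 mM NaCl, 0.001% Tween-20, 2.5 mM MgCl2, 300 μM CaCl2. Compound serially diluted; heated 40–90 °C at 1 °C/min, fluorescence 500 nm. Tm shifts fitted using DSC/ThermoFluor-derived thermodynamic parameters.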
(In general: DSF heats the sample and reads unfolding from a dye or from intrinsic fluorescence.)

The target of experiment [3] is T3, proMMP9(67-444;ΔFnII) (SEQ ID NO:5) (Homo sapiens, UniProt P14780, DEL216-390).
T3 construct: start methionine (N); made in house; host or cells: E. coli BL21(DE3) RIL
T3 sequence (P14780 with tags, fused parts or gaps DEL216-390): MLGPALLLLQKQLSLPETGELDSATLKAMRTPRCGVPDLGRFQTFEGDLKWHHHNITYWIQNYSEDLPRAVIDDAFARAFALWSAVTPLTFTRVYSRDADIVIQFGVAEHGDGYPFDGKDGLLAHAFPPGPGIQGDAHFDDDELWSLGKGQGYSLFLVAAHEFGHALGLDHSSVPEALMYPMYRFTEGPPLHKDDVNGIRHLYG
Description: ThermoFluor binding assay with proMMP9(67-444;ΔFnII). Here is the method: The ThermoFluor® (TF) assay is a 384-well plate-based binding assay that measures thermal stability of proteins (Biomol Screen 2001, 6, 429-40; Biochemistry 2005, 44, 5258-66). The experiments were carried out using instruments available from Johnson & Johnson Pharmaceutical Research & Development, LLC. TF dye used in all experiments was […] (1,8-ANS) (Invitrogen: A-47).
Compounds were arranged in a pre-dispensed plate (Greiner Bio-one: 781280), wherein compounds were serially diluted in 100% DMSO across 11 columns within a series. Columns 12 and 24 were used as DMSO reference and contained no compound. For multiple compound concentration-response experiments, the compound aliquots ([…]) were robotically predispensed directly into black 384-well polypropylene PCR microplates (Abgene: TF-0384/k) using a Cartesian Hummingbird liquid handler (DigiLab, Holliston, Mass.). Following compound dispense, protein and dye solutions were added to achieve the final assay volume of 3 μL. The assay solutions were overlayed with 1 μL of silicone oil (Fluka, type DC 200: 85411) to prevent evaporation.
Assay plates were robotically loaded onto a thermostatically controlled PCR-type thermal block and then heated from 40 to 90° C. at a ramp-rate of 1° C./min for all experiments. Fluorescence was measured by continuous illumination with UV light (Hamamatsu LC6) supplied via fiber optics and filtered through a band-pass filter (380-400 nm; >60D cutoff). Fluorescence emission of the entire 384-well plate was detected by measuring light intensity using a CCD camera (Sensys, Roper Scientific) filtered to detect 500±25 nm, resulting in simultaneous and independent readings of all 384 wells. A single image with 20-sec exposure time was collected at each temperature, and the sum of the pixel intensity in a given area of the assay plate was recorded vs temperature and fit to standard equations to yield the Tm (J Biomol Screen 2001, 6, 429-40).
Thermodynamic parameters necessary for fitting compound binding for each proMMP were estimated by differential scanning calorimetry (DSC) and from ThermoFluor® data. The heat capacity of unfolding for each protein was estimated from the molecular weight and from ThermoFluor® dosing data.
ThermoFluor® with proMMP9(67-444;ΔFnII) (SEQ ID NO:5)
The protein sample preparations had to include a desalting buffer exchange step via a PD-10 gravity column (GE Healthcare). The desalting buffer exchange was performed prior to diluting the protein to the final assay concentration of 3.5 μM proMMP9(67-444;ΔFnII) (SEQ ID NO:5). The concentration of proMMP9(67-444;ΔFnII) (SEQ ID NO:5) was determined spectrophotometrically based on a calculated extinction coefficient of ε280=33900 M^−1cm^−1, a calculated molecular weight of 22.6 kDa, and calculated pI of 5.20. ThermoFluor® reference conditions were defined as follows: 80 μg/mL (3.5 μM) proMMP9(67-444;ΔFnII) (SEQ ID NO:5), 50 μM 1,8-ANS, pH 7.0 Buffer (50 mM HEPES pH 7.0, 100 mM NaCl, 0.001% Tween-20, 2.5 mM MgCl2, 300 μM CaCl2). The thermodynamic parameters for proMMP9(67-444;ΔFnII) (SEQ ID NO:5) are as follows: Tm (° C.)=63 (+/−0.1), ΔUH(Tm) (cal mol^−1)=105000(+/−5000), ΔUS(Tm) (cal mol^−1 K^−1)=[…], ΔUCp (cal mol^−1 K^−1)=2000.

Where a name gives a salt, the structure may show the parent alone.

T1 sequence (P14780 20-707 R574P): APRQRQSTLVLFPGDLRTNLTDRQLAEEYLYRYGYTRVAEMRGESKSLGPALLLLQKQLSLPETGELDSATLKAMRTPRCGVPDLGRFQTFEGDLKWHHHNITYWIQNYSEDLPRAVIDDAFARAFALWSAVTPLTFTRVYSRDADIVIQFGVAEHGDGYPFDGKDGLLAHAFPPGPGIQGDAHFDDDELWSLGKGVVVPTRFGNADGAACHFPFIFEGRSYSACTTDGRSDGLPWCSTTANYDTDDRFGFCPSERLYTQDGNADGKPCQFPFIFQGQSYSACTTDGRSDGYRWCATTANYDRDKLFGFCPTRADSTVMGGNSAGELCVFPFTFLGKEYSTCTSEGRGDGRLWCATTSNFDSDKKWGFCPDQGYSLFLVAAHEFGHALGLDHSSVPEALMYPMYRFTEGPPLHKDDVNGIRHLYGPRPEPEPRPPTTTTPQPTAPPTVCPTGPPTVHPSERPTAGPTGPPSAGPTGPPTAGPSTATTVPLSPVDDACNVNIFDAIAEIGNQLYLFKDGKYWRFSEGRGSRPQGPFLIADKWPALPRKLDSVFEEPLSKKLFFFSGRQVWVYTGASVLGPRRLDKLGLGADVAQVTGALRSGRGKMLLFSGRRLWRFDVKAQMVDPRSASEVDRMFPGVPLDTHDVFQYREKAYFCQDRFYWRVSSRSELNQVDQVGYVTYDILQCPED

`CC(C)Oc1ccc(S(N)(=O)=O)cc1Nc1nc(-c2ccc(N(C)CCN(C)C)nc2)cs1` [Example 43, 3-(4-{6-[(2-Dimethylamino-ethyl)-methyl-amino]-pyridin-3-yl}-thiazol-2-ylamino)-4-isopropoxy-benzenesulfonamide.TFA]: the IC50 in experiment [1] is 200 nM. The Kd in experiment [2] was 120 nM; in experiment [3] it was 1700 nM.
`CC(C)Oc1ccc(S(N)(=O)=O)cc1Nc1nc(-c2ccc(N3CCNCC3)nc2)cs1` [Example 44, 4-Isopropoxy-3-[4-(6-piperazin-1-yl-pyridin-3-yl)-thiazol-2-ylamino]-benzenesulfonamide.TFA] yielded an IC50 in experiment [1] of 73 nM. Further, the results for the Kd in experiment [2] and in experiment [3] were 48 nM and 130 nM, respectively.
`CC(C)Oc1ccc(S(N)(=O)=O)cc1Nc1nc(-c2ccc(C(=O)O)nc2)cs1` [Example 45, 5-[2-(2-Isopropoxy-5-sulfamoyl-phenylamino)-thiazol-4-yl]-pyridine-2-carboxylic acid.HCl] came in with an IC50 in experiment [1] of 370 nM. The Kd was 470 nM in experiment [2] and 3700 nM in experiment [3].
In experiment [1], `CC(C)Oc1ccc(S(N)(=O)=O)cc1Nc1nc(-c2ccc(C(=O)N3CCN(C)CC3)nc2)cs1` [Example 46, 4-Isopropoxy-3-{4-[6-(4-methyl-piperazine-1-carbonyl)-pyridin-3-yl]-thiazol-2-ylamino}-benzenesulfonamide.TFA] registered an IC50 of 1300 nM. Besides, the Kd came out at 1300 nM in experiment [2] and 6600 nM in experiment [3].
Take `CCN1CCN(C(=O)c2ccc(-c3csc(Nc4cc(S(N)(=O)=O)ccc4OC(C)C)n3)cn2)CC1` [Example 47, 4-Isopropoxy-3-{4-[6-(4-ethyl-piperazine-1-carbonyl)-pyridin-3-yl]-thiazol-2-ylamino}-benzenesulfonamide.TFA]: the IC50 in experiment [1] was 980 nM. In addition, the Kd in experiment [2] turned out to be 900 nM; in experiment [3], 1500 nM.
In experiment [1], `CC(C)Oc1ccc(S(N)(=O)=O)cc1Nc1nc(-c2ccc(C(=O)N3CCC(N(C)C)CC3)nc2)cs1` [Example 48, 3-{4-[6-(4-Dimethylamino-piperidine-1-carbonyl)-pyridin-3-yl]-thiazol-2-ylamino}-4-isopropoxy-benzenesulfonamide.TFA] returned an IC50 of 1100 nM. Also, the Kd in experiment [2] stood at 2300 nM; in experiment [3] it was 4100 nM.
`CC(C)Oc1ccc(S(N)(=O)=O)cc1Nc1nc(-c2ccc(C(=O)N3CCCN(C)CC3)nc2)cs1` [Example 49, 3-{4-[6-(4-Methyl-[1,4]diazepane-1-carbonyl)-pyridin-3-yl]-thiazol-2-ylamino}-4-isopropoxy-benzenesulfonamide.TFA]: in experiment [1], the IC50 came out at 1000 nM. Also, the Kd in experiment [2] amounted to 830 nM; in experiment [3], 2000 nM.
In the same order, the values of `CC(C)Oc1ccc(S(N)(=O)=O)cc1Nc1nc(-c2ccc(C(=O)NCCN(C)C)nc2)cs1` [Example 50, 5-[2-(2-Isopropoxy-5-sulfamoyl-phenylamino)-thiazol-4-yl]-pyridine-2-carboxylic acid (2-dimethylamino-ethyl)-amide.TFA] are 160 nM, 90 nM and 130 nM.
In the same order, the values of `CC(C)Oc1ccc(S(N)(=O)=O)cc1Nc1nc(-c2ccc(C(=O)N3CCN(C(C)C)CC3)nc2)cs1` [Example 51, 4-Isopropoxy-3-{4-[6-(4-isopropyl-piperazine-1-carbonyl)-pyridin-3-yl]-thiazol-2-ylamino}-benzenesulfonamide.TFA] are 1800 nM, 1200 nM and 2700 nM.
Molecule `CCN1CCCN(C(=O)c2ccc(-c3csc(Nc4cc(S(N)(=O)=O)ccc4OC(C)C)n3)cn2)CC1` [Example 52, 3-{4-[6-(4-Ethyl-[1,4]diazepane-1-carbonyl)-pyridin-3-yl]-thiazol-2-ylamino}-4-isopropoxy-benzenesulfonamide.TFA] yielded an IC50 in experiment [1] of 1000 nM. For the same molecule, the figures for the Kd in experiment [2] and in experiment [3] were 1200 nM and 2200 nM, respectively.
In the same order, the values of `CC(C)Oc1ccc(S(N)(=O)=O)cc1Nc1nc(-c2ccc(C(=O)N(C)CCN(C)C)nc2)cs1` [Example 53, 5-[2-(2-Isopropoxy-5-sulfamoyl-phenylamino)-thiazol-4-yl]-pyridine-2-carboxylic acid (2-dimethylamino-ethyl)-methyl-amide.TFA] are 970 nM, 890 nM and 2300 nM.
In the same order, the values of `CC(C)Oc1ccc(S(N)(=O)=O)cc1Nc1nc(-c2ccc(C(=O)N3CCN(C(=O)OC(C)(C)C)CC3)nc2)cs1` [Example 54, 4-{5-[2-(2-Isopropoxy-5-sulfamoyl-phenylamino)-thiazol-4-yl]-pyridine-2-carbonyl}-piperazine-1-carboxylic acid tert-butyl ester.TFA] are 3700 nM, 960 nM and 2500 nM.
As for `CC(C)Oc1ccc(S(N)(=O)=O)cc1Nc1nc(-c2ccc(C(=O)NC3CCN(C)CC3)nc2)cs1` [Example 55, 5-[2-(2-Isopropoxy-5-sulfamoyl-phenylamino)-thiazol-4-yl]-pyridine-2-carboxylic acid (1-methyl-piperidin-4-yl)-amide.TFA], the IC50 in experiment [1] stood at 420 nM. Besides, the dissociation constant (Kd) in experiment [2] worked out at 810 nM; in experiment [3], 2600 nM.
In the same order, the values of `CC(C)Oc1ccc(S(N)(=O)=O)cc1Nc1nc(-c2ccc(CO)nc2)cs1` [Example 56, 3-[4-(6-Hydroxymethyl-pyridin-3-yl)-thiazol-2-ylamino]-4-isopropoxy-benzenesulfonamide] are 390 nM, 640 nM and 1500 nM.
As for `CC(C)Oc1ccc(S(N)(=O)=O)cc1Nc1nc(-c2ccc(C(=O)N3CCNCC3)nc2)cs1` [Example 58, 4-Isopropoxy-3-{4-[6-(piperazine-1-carbonyl)-pyridin-3-yl]-thiazol-2-ylamino}-benzenesulfonamide.TFA], the IC50 in experiment [1] was 1400 nM. Further, the Kd was 1200 nM in experiment [2] and 3100 nM in experiment [3].
`CC(C)Oc1ccc(S(N)(=O)=O)cc1Nc1nc(-c2ccc(NCC3CC3)nc2)cs1` [Example 62, 3-((4-(6-((Cyclopropylmethyl)amino)pyridin-3-yl)thiazol-2-yl)amino)-4-isopropoxybenzenesulfonamide.TFA] yielded an IC50 in experiment [1] of 610 nM. Moreover, the Kd in experiment [2] was 510 nM; in experiment [3], 2200 nM.
